Assays:
EGFR WT = EGFR WT (Homo sapiens (Human), UniProt P00533); assay: TR-FRET assay for ERBB kinases; assay type: biochemical; settings: geometric mean if measured more than once
Method: (§1) TR-FRET Assay for ERBB Kinases
(§2) All compounds and PROTACs were serially diluted in three-fold increments using 100% DMSO, followed by an intermediate 10-fold dilution using Buffer A (50 mM HEPES, pH 7.5, 50 mM NaCl, 10 mM MgCl2, 1 mM DTT, and 0.1% Pluronic F-68). […] Next, 10 uL of protein kinase in Buffer A was added to each well of the assay plate and pre-incubated with compound for 10 minutes. Kinase reactions were then initiated by addition of 5 uL substrate mix containing 3 mM ATP and 30 uM fluorescein-labeled Poly-GluTyr (Thermo Fisher, #PV3610) in Buffer A and allowed to proceed for 10 minutes at room temperature. Reactions were quenched by addition of a 5 uL mixture containing 5 nM LanthaScreen® Tb-pY20 Antibody (Thermo Fisher, #PV3552) and 40 mM EDTA in Buffer A. Assay plates were then read using a Synergy2 (Biotek Instruments, Winooski, Vt.) via excitation thru a 340/20 nm bandpass filter and emission collected thru 490/10 nm (donor) and 520/25 nm (acceptor) bandpass filters.

EGFR L858R/T790M/C797S = EGFR L858R/T790M/C797S (Homo sapiens (Human), UniProt P00533, C797S/L858R/T790M); assay: TR-FRET assay for ERBB kinases; assay type: biochemical; settings: geometric mean if measured more than once
EGFR L858R/T790M/C797S, sequence (P00533 25-1210 T790M/C797S/L858R): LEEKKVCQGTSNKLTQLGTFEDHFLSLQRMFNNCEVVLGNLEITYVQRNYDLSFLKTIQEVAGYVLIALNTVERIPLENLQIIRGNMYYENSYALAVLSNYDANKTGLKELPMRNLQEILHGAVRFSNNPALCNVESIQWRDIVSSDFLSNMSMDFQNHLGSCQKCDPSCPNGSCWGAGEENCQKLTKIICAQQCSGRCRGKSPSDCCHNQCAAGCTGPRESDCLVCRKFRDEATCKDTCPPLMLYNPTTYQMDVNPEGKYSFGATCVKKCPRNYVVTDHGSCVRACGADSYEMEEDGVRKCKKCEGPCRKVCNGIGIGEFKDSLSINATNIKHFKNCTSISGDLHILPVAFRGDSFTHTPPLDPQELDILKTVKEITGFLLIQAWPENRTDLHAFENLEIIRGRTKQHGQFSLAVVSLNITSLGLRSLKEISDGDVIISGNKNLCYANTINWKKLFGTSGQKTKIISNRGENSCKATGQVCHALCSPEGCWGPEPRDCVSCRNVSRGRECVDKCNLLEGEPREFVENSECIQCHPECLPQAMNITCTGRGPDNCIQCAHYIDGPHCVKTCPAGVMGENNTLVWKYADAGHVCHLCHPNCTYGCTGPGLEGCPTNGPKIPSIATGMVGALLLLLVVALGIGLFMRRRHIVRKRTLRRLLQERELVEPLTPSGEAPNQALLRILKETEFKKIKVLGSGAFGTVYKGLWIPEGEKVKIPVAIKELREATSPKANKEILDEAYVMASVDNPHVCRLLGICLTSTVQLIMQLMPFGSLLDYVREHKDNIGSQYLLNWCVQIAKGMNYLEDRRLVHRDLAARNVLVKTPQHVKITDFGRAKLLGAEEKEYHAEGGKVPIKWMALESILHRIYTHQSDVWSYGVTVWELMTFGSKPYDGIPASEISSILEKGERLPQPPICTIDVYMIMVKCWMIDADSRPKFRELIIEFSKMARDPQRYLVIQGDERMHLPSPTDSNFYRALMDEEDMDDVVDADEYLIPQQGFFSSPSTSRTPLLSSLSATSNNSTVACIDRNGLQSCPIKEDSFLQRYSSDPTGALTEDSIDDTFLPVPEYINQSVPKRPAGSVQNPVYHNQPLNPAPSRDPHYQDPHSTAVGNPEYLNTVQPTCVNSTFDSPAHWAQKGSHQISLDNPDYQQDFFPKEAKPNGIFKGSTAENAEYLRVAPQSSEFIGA
Method: as §1, §2

EGFR L858R/T790M = EGFR L858R/T790M (Homo sapiens (Human), UniProt P00533, L858R/T790M); assay: TR-FRET assay for ERBB kinases; assay type: biochemical; settings: geometric mean if measured more than once
EGFR L858R/T790M, sequence (P00533 25-1210 T790M/L858R): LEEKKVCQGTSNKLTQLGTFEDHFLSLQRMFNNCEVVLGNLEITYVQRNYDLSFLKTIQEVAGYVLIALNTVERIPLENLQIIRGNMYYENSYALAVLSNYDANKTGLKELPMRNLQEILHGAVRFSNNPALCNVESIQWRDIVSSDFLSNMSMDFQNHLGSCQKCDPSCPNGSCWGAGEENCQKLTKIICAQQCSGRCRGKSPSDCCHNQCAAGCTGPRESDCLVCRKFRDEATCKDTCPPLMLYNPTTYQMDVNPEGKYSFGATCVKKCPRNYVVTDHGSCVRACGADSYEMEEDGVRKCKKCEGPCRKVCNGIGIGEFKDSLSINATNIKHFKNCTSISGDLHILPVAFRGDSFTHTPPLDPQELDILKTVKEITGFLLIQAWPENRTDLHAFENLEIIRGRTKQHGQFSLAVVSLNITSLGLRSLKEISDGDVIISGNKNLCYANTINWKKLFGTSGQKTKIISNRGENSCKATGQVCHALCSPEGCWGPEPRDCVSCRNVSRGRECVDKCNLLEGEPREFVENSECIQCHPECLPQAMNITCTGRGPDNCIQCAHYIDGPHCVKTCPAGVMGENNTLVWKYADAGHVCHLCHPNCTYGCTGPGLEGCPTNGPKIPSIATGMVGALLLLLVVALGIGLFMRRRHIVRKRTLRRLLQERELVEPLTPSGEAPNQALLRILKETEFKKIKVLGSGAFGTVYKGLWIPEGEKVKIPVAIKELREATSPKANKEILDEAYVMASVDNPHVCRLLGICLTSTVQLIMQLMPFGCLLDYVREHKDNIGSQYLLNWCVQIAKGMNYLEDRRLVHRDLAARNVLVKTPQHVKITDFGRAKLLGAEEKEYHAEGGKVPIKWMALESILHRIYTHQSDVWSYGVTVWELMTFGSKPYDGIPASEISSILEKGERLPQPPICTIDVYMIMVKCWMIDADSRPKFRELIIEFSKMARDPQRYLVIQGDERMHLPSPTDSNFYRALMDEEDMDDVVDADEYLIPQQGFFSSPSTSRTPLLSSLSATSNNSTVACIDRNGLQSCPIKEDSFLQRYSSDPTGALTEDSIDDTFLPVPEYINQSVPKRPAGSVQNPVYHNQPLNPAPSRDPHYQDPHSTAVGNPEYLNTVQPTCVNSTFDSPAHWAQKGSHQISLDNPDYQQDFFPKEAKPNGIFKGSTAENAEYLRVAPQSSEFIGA
Method: as §1, §2

[1] = target: EGFR L858R/T790M/C797S triple mutant (H520*) (Homo sapiens (Human), UniProt P00533, C797S/L858R/T790M); assay: EGFR protein degradation assay (Western blot); assay type: cell-based; settings: 72 hours, 300 nM to 10 nM
EGFR L858R/T790M/C797S triple mutant (H520*), sequence (P00533 25-1210 T790M/C797S/L858R): as the sequence (P00533 25-1210 T790M/C797S/L858R) above
Method: (§3) EGFR Protein Degradation assay
Cells were incubated overnight at 37° C., 5% CO2 prior to compound addition. A 10 mM compound stock in DMSO was serially diluted in DMSO to provide the following stock concentrations: 1, 0.3, 0.1, 0.03 and 0.01 mM. An appropriate volume of each compound dilution, together with a DMSO vehicle control, was added to media to provide a 2× compound solution. […] At the end of the compound treatment, cells were washed once with ice-cold phosphate-buffered saline (PBS) and treated with lysis solution (1× lysis buffer, Cell Signaling Technologies (CST #9803) supplemented with Piarce™ protease inhibitors, #A32953, Thermo Fisher Scientific, TFS). Lysates were collected and clarified of cell debris by spinning at 10K rpm for 10 minutes. A specific volume of supernatant was retrieved for protein quantification (Pierce™ BCA kit, TFS #23225) and for Western analysis. Loading buffer supplemented with EDTA and reducing agent was added to each supernatant. A specific volume of supernatant (determined by protein assay: […] loaded per sample) was loaded into a NuPAGE™ 4-12% Bis-Tris gel (TFS). Samples were run at 165V in MOPS running buffer for 2 hours and then transferred to PVDF blotting membrane using a dry blotting system (iBlot2, TFS). Membranes were blocked in Tris-buffered saline supplemented with Tween, 0.1% (TBST) containing 5% non-fat dry milk, (AmericanBio). Following block, membranes were washed once with TBST. […] Membranes were washed 3× with TBST prior to addition of secondary antibody (1:10 000, anti-rabbit HRP-linked, CST #7074) in TBST with 3% BSA and then incubated at room temperature for one hour. Membranes were then washed 3× with TBS and signal developed by exposure to developer (SuperSignal West Femto, TFS) for 5 minutes. Membranes were then immediately imaged using a BioRad Chemidoc.

[2] = target: EGFR L858R/T790M double mutant (H1975) (Homo sapiens (Human), UniProt P00533, L858R/T790M); assay: EGFR protein degradation assay (Western blot); assay type: cell-based; settings: 72 hours, 300 nM to 10 nM
Method: as §3
Cells expressing the appropriate form of EGFR were seeded in 6-well plates (300,000 cells per well) and allowed to adhere to the plate overnight. […] To harvest cells, media was removed and cells were washed once with ice-cold phosphate-buffered saline (PBS) prior to the addition of 400 μl lysis buffer (Cell Signaling Technology) supplemented with a protease inhibitor cocktail (Thermo Scientific). Cells were scraped from the plate and the cell lysate transferred to an Eppendorf tube and then clarified by a single spin at 10 000 rpm for 10 minutes. The protein concentration of each lysate was determined (BCA kit, Thermo Scientific) prior to the addition of loading buffer (Invitrogen) and reducing agent (Invitrogen). 10 μg protein of each lysate was loaded on an SDS/PAGE gel and run at 165V for 2 hours. Following transfer to a PVDF membrane (iBlot2, Thermo Fisher Scientific), the membrane was blocked in Tris-buffered saline containing 0.1% Tween-20 (TBS-T) and supplemented with 5% powdered milk for 1 hour. Membranes were then probed with EGFR and tubulin (loaded control) primary antibodies in TBS-T containing 3% bovine serum albumin (BSA) overnight at 4° C. Membranes were washed thrice with TBS-T before incubation with secondary antibody in TBS-T containing 3% bovine serum albumin (BSA) and incubated for 1 hour at room temperature. Following 3 further washes with TBS, membrane proteins of interest were detected by enzyme-linked chemiluminescence (ECL) using a Chemidoc (Bio-Rad).

EGFR Exon20NPG = EGFR Exon20NPG (Homo sapiens (Human), UniProt P00533, INS770NPG); assay: TR-FRET assay for ERBB kinases; assay type: biochemical; settings: geometric mean if measured more than once
EGFR Exon20NPG, sequence (P00533 other isoform, or with tags, fused parts or gaps del 1-694/ins NPG behind 770 limits assumed): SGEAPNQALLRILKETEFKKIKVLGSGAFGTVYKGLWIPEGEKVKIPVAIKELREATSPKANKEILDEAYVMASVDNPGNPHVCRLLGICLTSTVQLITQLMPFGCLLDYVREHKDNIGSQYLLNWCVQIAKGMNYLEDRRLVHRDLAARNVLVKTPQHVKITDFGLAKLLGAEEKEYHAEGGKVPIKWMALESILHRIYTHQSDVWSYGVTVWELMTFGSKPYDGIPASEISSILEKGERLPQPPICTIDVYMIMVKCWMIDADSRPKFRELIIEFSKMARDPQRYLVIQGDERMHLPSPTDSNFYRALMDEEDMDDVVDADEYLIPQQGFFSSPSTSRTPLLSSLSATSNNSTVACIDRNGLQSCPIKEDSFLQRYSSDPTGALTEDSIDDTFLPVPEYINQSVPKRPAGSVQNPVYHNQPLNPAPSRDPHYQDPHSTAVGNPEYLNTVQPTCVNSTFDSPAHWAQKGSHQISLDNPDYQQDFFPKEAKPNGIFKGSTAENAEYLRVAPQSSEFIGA
Method: as §1
All compounds and PROTACs were serially diluted in three-fold increments using 100% DMSO, followed by an intermediate 10-fold dilution using Buffer A (50 mM HEPES, pH 7.5, 50 mM NaCl, 10 mM MgCl2, 1 mM DTT, and 0.1% Pluronic F-68). Two microliters of serially diluted compound or PROTAC were then transferred to black 384-well Proxiplates (PerkinElmer, #6008260) using an Integra Viaflo96. Next, 10 uL of protein kinase in Buffer A was added to each well of the assay plate and pre-incubated with compound for 10 minutes. Kinase reactions were then initiated by addition of 5 uL substrate mix containing 3 mM ATP and 30 uM fluorescein-labeled Poly-GluTyr (Thermo Fisher, #PV3610) in Buffer A and allowed to proceed for 10 minutes at room temperature. Reactions were quenched by addition of a 5 uL mixture containing 5 nM LanthaScreen® Tb-pY20 Antibody (Thermo Fisher, #PV3552) and 40 mM EDTA in Buffer A. Assay plates were then read using a Synergy2 (Biotek Instruments, Winooski, Vt.) via excitation thru a 340/20 nm bandpass filter and emission collected thru 490/10 nm (donor) and 520/25 nm (acceptor) bandpass filters.

| SMILES | IC50 (EGFR WT) [µM] | IC50 (EGFR L858R/T790M/C797S) [µM] | IC50 (EGFR L858R/T790M) [µM] | EGFR protein remaining, EGFR L858R/T790M/C797S triple mutant [1] | EGFR protein remaining, EGFR L858R/T790M double mutant [2] | IC50 (EGFR Exon20NPG) [µM] |
| --- | --- | --- | --- | --- | --- | --- |
| Cc1ncsc1-c1ccc(CNC(=O)[C@@H]2C[C@@H](O)CN2C(=O)[C@H](C(C)C)N2Cc3ccccc3C2=O)c(OCCOCCOCCOCCOCC#Cc2cccc3c2C(=O)N([C@@H](C(=O)Nc2nccs2)c2cc(F)ccc2O)C3)c1 [compound 259] | 2.1 | 0.55 | 3.1 | C (>80% EGFR protein remaining after 72 hours of incubation with the test compound at a concentration of 300 nM) | C (>80% EGFR protein remaining after 72 hours of incubation with the test compound at a concentration of 300 nM) | 2.1 |
| Cc1ncsc1-c1ccc(CNC(=O)[C@@H]2C[C@@H](O)CN2C(=O)[C@H](C(C)C)N2Cc3ccccc3C2=O)c(OCCOCCOCC#Cc2cccc3c2C(=O)N([C@@H](C(=O)Nc2nccs2)c2cc(F)ccc2O)C3)c1 (single isomer, unassigned) [Example 257] | 5.7 | 2.7 | > 30 | C (>80% EGFR protein remaining after 72 hours of incubation with the test compound at a concentration of 300 nM) | C (>80% EGFR protein remaining after 72 hours of incubation with the test compound at a concentration of 300 nM) | > 30 |
| Cc1ncsc1-c1ccc([C@H](C)NC(=O)[C@H]2C[C@H](O)CN2C(=O)[C@@H](NC(=O)COCCOCCOCCOCCOCCOc2ccc(-c3nccc(Nc4cc5c(cn4)nc(C)n5C(C)C)n3)cc2)C(C)(C)C)cc1 [compound 280] | > 30 | > 30 | > 30 | C (>80% EGFR protein remaining after 72 hours of incubation with the test compound at a concentration of 300 nM) |  | > 30 |
| O=C1CCC(N2C(=O)c3ccc(OCCOCCOCCOCCCc4cccc5c4C(=O)N(C(C(=O)Nc4nccs4)c4cc(F)ccc4O)C5)cc3C2=O)C(=O)N1 (stereo not drawn) [Example 283, 2-(7-(3-(2-(2-(2-((2-(2,6-dioxopiperidin-3-yl)-1,3-dioxoisoindolin-5-yl)oxy)ethoxy)ethoxy)ethoxy)propyl)-1-oxoisoindolin-2-yl)-2-(5-fluoro-2-hydroxyphenyl)-N-(thiazol-2-yl)acetamide] | 1.2 | 0.82 | 2.8 | C (>80% EGFR protein remaining after 72 hours of incubation with the test compound at a concentration of 300 nM) |  | 4.6 |
| Cc1ncsc1-c1ccc([C@H](C)NC(=O)[C@@H]2C[C@@H](O)CN2C(=O)[C@@H](NC(=O)COCCOCCOCCOCCOCCOCCOCC#Cc2cccc3c2C(=O)N(C(C(=O)Nc2nccs2)c2cc(F)ccc2O)C3)C(C)(C)C)cc1 (stereo partly drawn) [compound 299] | 0.24 | 0.2 | 4.6 | C (>80% EGFR protein remaining after 72 hours of incubation with the test compound at a concentration of 300 nM) |  |  |
| O=C1CCC(N2C(=O)c3ccc(N4CCC(CN5CCC(OC/C=C/c6cccc7c6C(=O)N(C(C(=O)Nc6nccs6)c6cc(F)ccc6O)C7)CC5)CC4)cc3C2=O)C(=O)N1 (stereo not drawn) [compound 298] | 1.6 | 0.54 | 1.4 | C (>80% EGFR protein remaining after 72 hours of incubation with the test compound at a concentration of 300 nM) |  |  |
| Cc1ncsc1-c1ccc([C@H](C)NC(=O)[C@H]2C[C@H](O)CN2C(=O)[C@@H](NC(=O)COCCOCCOCCOCCOC2CCN(c3nccc(Nc4cc5c(cn4)nc(C)n5C(C)C)n3)CC2)C(C)(C)C)cc1 [compound 284] | 14 | 12 | > 30 | C (>80% EGFR protein remaining after 72 hours of incubation with the test compound at a concentration of 300 nM) |  | 30 |
| O=C1CCC(N2C(=O)c3ccc(N4CCC(CN5CCC(OCCCc6cccc7c6C(=O)N(C(C(=O)Nc6nccs6)c6cc(F)ccc6O)C7)CC5)CC4)cc3C2=O)C(=O)N1 (stereo not drawn) [compound 297] | 1.8 | 0.31 | 1.8 | B (≤80% and >50% EGFR protein remaining after 72 hours of incubation with the test compound at a concentration between 300 nM and 10 nM) |  |  |
| COC1CCN(c2nccc(Nc3cc4c(cn3)nc(COCCN3CCN(c5ccc(OCCCOCC(=O)N[C@H](C(=O)N6C[C@H](O)C[C@H]6C(=O)NCc6ccc(-c7scnc7C)cc6)C(C)(C)C)cc5)CC3)n4C(C)C)n2)CC1 [compound 303] | > 30 | 0.25 | 0.55 | A (≤50% EGFR protein remaining after 72 hours of incubation with the test compound at a concentration between 300 nM and 10 nM) |  |  |
| O=C1CCC(N2C(=O)c3ccc(N4CCN(CC5CCN(CCCc6cccc7c6C(=O)N(C(C(=O)Nc6nccs6)c6cc(F)ccc6O)C7)CC5)CC4)cc3C2=O)C(=O)N1 (stereo not drawn) [compound 294] | 3.5 | 0.17 | 0.81 | C (>80% EGFR protein remaining after 72 hours of incubation with the test compound at a concentration of 300 nM) |  |  |
| O=C1CCC(N2C(=O)c3cccc(NCCOCCOCCOCCOCCOCCOCCCc4cccc5c4C(=O)N(C(C(=O)Nc4nccs4)c4cc(F)ccc4O)C5)c3C2=O)C(=O)N1 (stereo not drawn) [compound 300] | 2.7 | 3.1 | 20 | C (>80% EGFR protein remaining after 72 hours of incubation with the test compound at a concentration of 300 nM) |  |  |
